{"source": "ChEMBL document CHEMBL3792367", "about": "“Synthesis and molecular modeling of antimicrobial active fluoroquinolone-pyrazine conjugates with amino acid linkers” (2016)", "key": {"[1]": {"test_system": "Streptococcus pyogenes", "assay": "Antibacterial activity against Streptococcus pyogenes ATCC 19615 after 18 hrs by agar dilution method", "assay_type": "functional", "details": "ATCC 19615, 18 h"}, "[2]": {"test_system": "Pseudomonas aeruginosa", "assay": "Antibacterial activity against Pseudomonas aeruginosa ATCC 27853 after 18 hrs by agar dilution method", "assay_type": "functional", "details": "ATCC 27853, 18 h"}, "[3]": {"test_system": "Salmonella typhi", "assay": "Antibacterial activity against Salmonella typhi ATCC 19430 after 18 hrs by agar dilution method", "assay_type": "functional, Salmonella enterica subsp. enterica serovar Typhi", "details": "Salmonella enterica, ATCC 19430, 18 h"}, "[4]": {"test_system": "Staphylococcus aureus", "assay": "Antibacterial activity against Staphylococcus aureus ATCC 25923 after 18 hrs by agar dilution method", "assay_type": "functional", "details": "ATCC 25923, 18 h"}}, "data": [{"molecule": "O=C(NCCC(=O)N1CCN(c2cc3c(cc2F)c(=O)c(C(=O)O)cn3C2CC2)CC1)c1cnccn1", "values": [{"measurement": "MIC", "setting": "[1]", "result": 614, "unit": "µM"}, {"measurement": "MIC", "setting": "[2]", "result": 2460, "unit": "µM"}, {"measurement": "MIC", "setting": "[3]", "result": 2460, "unit": "µM"}, {"measurement": "MIC", "setting": "[4]", "result": 0.307, "unit": "µM"}]}, {"molecule": "CCn1cc(C(=O)O)c(=O)c2cc(F)c(N3CCNCC3)cc21", "note": "[NORFLOXACIN]", "values": [{"measurement": "MIC", "setting": "[1]", "result": 1960, "unit": "µM"}, {"measurement": "MIC", "setting": "[2]", "result": 15, "unit": "µM"}, {"measurement": "MIC", "setting": "[3]", "result": 7.5, "unit": "µM"}, {"measurement": "MIC", "setting": "[4]", "result": 3.91, "unit": "µM"}]}, {"molecule": "CCn1cc(C(=O)O)c(=O)c2cc(F)c(N3CCN(C(=O)[C@H](C)NC(=O)c4cnccn4)CC3)cc21", "values": [{"measurement": "MIC", "setting": "[1]", "result": 1260, "unit": "µM"}, {"measurement": "MIC", "setting": "[2]", "result": 2520, "unit": "µM"}, {"measurement": "MIC", "setting": "[3]", "result": 2520, "unit": "µM"}, {"measurement": "MIC", "setting": "[4]", "result": 0.629, "unit": "µM"}]}, {"molecule": "O=C(NCCCC(=O)N1CCN(c2cc3c(cc2F)c(=O)c(C(=O)O)cn3C2CC2)CC1)c1cnccn1", "values": [{"measurement": "MIC", "setting": "[1]", "result": 149, "unit": "µM"}, {"measurement": "MIC", "setting": "[2]", "result": 597, "unit": "µM"}, {"measurement": "MIC", "setting": "[3]", "result": 2390, "unit": "µM"}, {"measurement": "MIC", "setting": "[4]", "result": 0.0746, "unit": "µM"}]}, {"molecule": "CCn1cc(C(=O)O)c(=O)c2cc(F)c(N3CCN(C(=O)CCCNC(=O)c4cnccn4)CC3)cc21", "values": [{"measurement": "MIC", "setting": "[1]", "result": 2450, "unit": "µM"}, {"measurement": "MIC", "setting": "[2]", "result": 2450, "unit": "µM"}, {"measurement": "MIC", "setting": "[3]", "result": 76.4, "unit": "µM"}, {"measurement": "MIC", "setting": "[4]", "result": 2.45, "unit": "µM"}]}, {"molecule": "C[C@H](NC(=O)c1cnccn1)C(=O)N1CCN(c2cc3c(cc2F)c(=O)c(C(=O)O)cn3C2CC2)CC1", "values": [{"measurement": "MIC", "setting": "[1]", "result": 2460, "unit": "µM"}, {"measurement": "MIC", "setting": "[2]", "result": 2460, "unit": "µM"}, {"measurement": "MIC", "setting": "[3]", "result": 2460, "unit": "µM"}, {"measurement": "MIC", "setting": "[4]", "result": 2.46, "unit": "µM"}]}, {"molecule": "CCn1cc(C(=O)O)c(=O)c2cc(F)c(N3CCN(C(=O)CCNC(=O)c4cnccn4)CC3)cc21", "values": [{"measurement": "MIC", "setting": "[1]", "result": 1260, "unit": "µM"}, {"measurement": "MIC", "setting": "[2]", "result": 2520, "unit": "µM"}, {"measurement": "MIC", "setting": "[3]", "result": 2520, "unit": "µM"}, {"measurement": "MIC", "setting": "[4]", "result": 0.628, "unit": "µM"}]}, {"molecule": "CCn1cc(C(=O)O)c(=O)c2cc(F)c(N3CCN(C(=O)CNC(=O)c4cnccn4)CC3)cc21", "values": [{"measurement": "MIC", "setting": "[1]", "result": 1300, "unit": "µM"}, {"measurement": "MIC", "setting": "[2]", "result": 2490, "unit": "µM"}, {"measurement": "MIC", "setting": "[3]", "result": 1300, "unit": "µM"}, {"measurement": "MIC", "setting": "[4]", "result": 0.648, "unit": "µM"}]}, {"molecule": "O=C(O)c1cn(C2CC2)c2cc(N3CCNCC3)c(F)cc2c1=O", "note": "[CIPROFLOXACIN]", "values": [{"measurement": "MIC", "setting": "[1]", "result": 3770, "unit": "µM"}, {"measurement": "MIC", "setting": "[2]", "result": 14.5, "unit": "µM"}, {"measurement": "MIC", "setting": "[3]", "result": 7.2, "unit": "µM"}, {"measurement": "MIC", "setting": "[4]", "result": 3.77, "unit": "µM"}]}, {"molecule": "O=C(NCC(=O)N1CCN(c2cc3c(cc2F)c(=O)c(C(=O)O)cn3C2CC2)CC1)c1cnccn1", "values": [{"measurement": "MIC", "setting": "[1]", "result": 2530, "unit": "µM"}, {"measurement": "MIC", "setting": "[2]", "result": 2530, "unit": "µM"}, {"measurement": "MIC", "setting": "[3]", "result": 2530, "unit": "µM"}, {"measurement": "MIC", "setting": "[4]", "result": 2.53, "unit": "µM"}]}]}
